Source: PubChem BioAssay AID877 (University of Pittsburgh Molecular Library Screening Center, 2007)
Active and inactive are the calls of the source. The rule behind the calls is not given here.

biological target: Serine/threonine-protein kinase PLK1 (Homo sapiens) (UniProt P53350); experiment: Plk1 polo box domain binding inhibitors, dose response, biochemical, fluorescence polarization (AID 877); conditions: Plk1 PBD phosphopeptide binding
Sequence (P53350 whole entry, looked up, the tested form may be a part): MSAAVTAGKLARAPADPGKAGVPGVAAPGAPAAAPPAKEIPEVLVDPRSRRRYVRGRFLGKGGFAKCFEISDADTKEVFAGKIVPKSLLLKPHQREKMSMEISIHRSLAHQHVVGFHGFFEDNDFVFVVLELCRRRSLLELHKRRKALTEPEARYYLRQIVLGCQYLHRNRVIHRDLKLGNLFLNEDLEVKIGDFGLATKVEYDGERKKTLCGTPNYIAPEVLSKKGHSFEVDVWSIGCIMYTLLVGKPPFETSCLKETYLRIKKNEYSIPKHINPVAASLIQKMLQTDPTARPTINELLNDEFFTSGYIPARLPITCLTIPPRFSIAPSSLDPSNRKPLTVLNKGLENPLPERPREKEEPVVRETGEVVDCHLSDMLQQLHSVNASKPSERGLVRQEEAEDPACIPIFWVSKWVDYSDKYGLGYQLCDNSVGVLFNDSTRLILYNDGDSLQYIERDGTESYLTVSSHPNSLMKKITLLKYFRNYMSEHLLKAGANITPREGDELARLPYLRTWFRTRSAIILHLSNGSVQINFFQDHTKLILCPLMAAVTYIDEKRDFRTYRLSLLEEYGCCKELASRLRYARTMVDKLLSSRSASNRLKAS

IC50, inactive:
O=C(O)COc1ccc(Br)cc1/C=N/O > 50 µM
O=C1C(C2=C(O)c3ccccc3C2=O)=Nc2ccccc21 > 50 µM
CCC(Sc1nc2n[nH]c(C)c2c(=N)n1-c1cccc(Cl)c1)C(=O)NCCOC (stereo not drawn) > 50 µM
